From patent publication US20110230481A2, “DERIVATIVES OF TETRABROMOBENZIMIDAZOLE, A PROCESS FOR THE PREPARATION THEREOF, A PHARMACEUTICAL COMPOSITION COMPRISING THE SAME, A METHOD OF USING THE SAME, A METHOD FOR MODULATING OR REGULATING SERINE/THREONINE KINASES, AND SERINE/THREONINE KINASES MODULATING AGENT” (SELVITA S.A., priority 2009, published 2011)

What was measured:
Test in all cases: KINOMEscan Max
ABL2 = ABL2 (Homo sapiens, UniProt P42684); type: binding
Summary of the method: (§1)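 Steps: mix DNA-tagged kinase, immobilized active-site ligand and compound; let compound compete with ligand for the kinase; quantify the kinase retained by qPCR on its DNA tag.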

AKT2 = AKT2 (Homo sapiens, UniProt P31751); type: binding
Summary of the method: as §1

BRSK2 = target: T1, BRSK2 (Homo sapiens, UniProt Q8IWQ3); type: binding
T1 construct: DNA tag (qPCR read-out)
Summary of the method: as §1

DLK = target: T2, DLK (Homo sapiens, UniProt Q12852); type: binding; conditions: 1 μM
T2 construct: DNA tag (qPCR read-out)
Summary of the method: as §1

DMPK = target: T3, DMPK (Homo sapiens, UniProt Q09013); type: binding
T3 construct: purchased Ambit (KINOMEscan Max panel service)
Summary of the method: as §1

FRK = target: T4, FRK (Homo sapiens, UniProt P42685); type: binding
T4 construct: purchased Ambit Kinomescan (contract panel, KINOMEscan Max)
Summary of the method: as §1

GRK1 = GRK1 (Homo sapiens, UniProt Q15835); type: binding
Summary of the method: as §1

KIT(V559D.T670I) = target: T5, KIT(V559D.T670I) (Homo sapiens, UniProt P10721, T670I/V559D); type: binding
T5 construct: purchased Ambit Kinomescan (contract panel)
Summary of the method: as §1

LRRK2 = LRRK2 (Homo sapiens, UniProt Q5S007); type: binding
Summary of the method: as §1

MAP3K3 = target: T6, MAP3K3 (Homo sapiens, UniProt Q99759); type: binding
T6 construct: purchased Ambit Kinomescan (contract panel)
Summary of the method: as §1

MAPKAPK5 = target: T7, MAPKAPK5 (Homo sapiens, UniProt Q8IW41); type: binding
T7 construct: purchased Ambit Kinomescan (contract panel)
Summary of the method: as §1

MELK = target: T8, MELK (Homo sapiens, UniProt Q14680); type: binding
T8 construct: purchased Ambit (KINOMEscan Max service)
Summary of the method: as §1

MST1R = MST1R (Homo sapiens, UniProt Q04912); type: binding
Summary of the method: as §1

PAK2 = target: T9, PAK2 (Homo sapiens, UniProt Q13177); type: binding
T9 construct: purchased Ambit (KINOMEscan Max service)
Summary of the method: as §1

PFTAIRE2 = PFTAIRE2 (Homo sapiens, UniProt Q96Q40); type: binding
Summary of the method: as §1

PIK3CA = target: T10, PIK3CA (Homo sapiens, UniProt P42336); type: binding
T10 construct: DNA tag (qPCR read-out)
Summary of the method: as §1

PIK3CD = target: T11, PIK3CD (Homo sapiens, UniProt O00329); type: binding
T11 construct: DNA tag (qPCR read-out)
Summary of the method: as §1

RET(V804M) = target: T12, RET(V804M) (Homo sapiens, UniProt P07949, V804M); type: binding
T12 construct: DNA tag (qPCR read-out)
Summary of the method: as §1

ROCK1 = target: T13, ROCK1 (Homo sapiens, UniProt Q13464); type: binding
T13 construct: DNA tag (qPCR read-out)
Summary of the method: as §1

[1] = target: T14, TYK2(JH1domain-catalytic) (Homo sapiens, UniProt P29597); type: binding; conditions: 1 μM
T14 construct: TYK2(JH1domain-catalytic); purchased Ambit Kinomescan (contract screening service)
Summary of the method: as §1

YANK2 = target: T15, YANK2 (Homo sapiens, UniProt Q9NY57); type: binding
T15 construct: purchased Ambit Kinomescan (contract screening service)
Summary of the method: as §1

[2] = system: EGFR(L747-S572del. P573S); type: binding, human; conditions: 1 μM
Method: (§2) Kinase panel profiling was performed at Ambit Kinomescan (http://www.ambitbio.com/technology/) using the “KINOMEscan™ Max” assay platform, a high-throughput method for screening small molecule compounds against large numbers of human kinases. KINOMEscan™ is based on a competition binding assay that quantitatively measures the ability of a compound to compete with an immobilized, active-site directed ligand. The assay is performed by combining three components: DNA-tagged kinase; immobilized ligand; and a test compound. The ability of the test compound to compete with the immobilized ligand is measured via quantitative PCR of the DNA tag. For a description of Ambit's assay protocol, see Fabian et al. A small molecule-kinase interaction map for clinical kinase inhibitors. Nat. Biotechnol. 23, 329-336 (2005).

EGFR(S572-I759del) = type: binding, human; conditions: 1 μM
Method: as §2

FLT3(ITD) = type: binding, human; conditions: 1 μM
Method: as §2

ISR1 = type: binding, human; conditions: 1 μM
Method: as §2

CLK1 = CLK1 (Homo sapiens, UniProt P49759); type: binding; parameters: DNA tag (qPCR read-out); purchased Ambit Kinomescan
Method: as §2

PIM1 = PIM1 (Homo sapiens, UniProt P11309); type: binding; parameters: DNA tag (qPCR read-out); purchased Ambit Kinomescan
Method: as §2

PIM2 = PIM2 (Homo sapiens, UniProt Q9P1W9); type: binding; parameters: DNA tag (qPCR read-out); purchased Ambit Kinomescan
Method: as §2

PIM3 = PIM3 (Homo sapiens, UniProt Q86V86); type: binding; parameters: DNA tag (qPCR read-out); purchased Ambit Kinomescan
Method: as §2

AKT2, sequence (P31751 whole entry): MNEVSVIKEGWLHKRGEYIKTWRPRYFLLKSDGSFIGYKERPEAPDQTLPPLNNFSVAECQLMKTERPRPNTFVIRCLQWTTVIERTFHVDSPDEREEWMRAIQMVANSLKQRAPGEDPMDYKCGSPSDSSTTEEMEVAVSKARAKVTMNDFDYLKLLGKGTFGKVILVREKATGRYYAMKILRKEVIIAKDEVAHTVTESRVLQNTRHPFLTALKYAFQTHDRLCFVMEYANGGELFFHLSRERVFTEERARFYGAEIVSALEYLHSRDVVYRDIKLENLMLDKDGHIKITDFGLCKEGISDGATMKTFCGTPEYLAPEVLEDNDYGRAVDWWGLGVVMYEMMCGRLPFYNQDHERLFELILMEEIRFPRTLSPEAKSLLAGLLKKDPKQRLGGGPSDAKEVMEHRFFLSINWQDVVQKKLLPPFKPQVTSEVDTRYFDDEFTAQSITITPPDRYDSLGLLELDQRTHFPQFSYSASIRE
T14 sequence (P29597 897-1176 limits assumed): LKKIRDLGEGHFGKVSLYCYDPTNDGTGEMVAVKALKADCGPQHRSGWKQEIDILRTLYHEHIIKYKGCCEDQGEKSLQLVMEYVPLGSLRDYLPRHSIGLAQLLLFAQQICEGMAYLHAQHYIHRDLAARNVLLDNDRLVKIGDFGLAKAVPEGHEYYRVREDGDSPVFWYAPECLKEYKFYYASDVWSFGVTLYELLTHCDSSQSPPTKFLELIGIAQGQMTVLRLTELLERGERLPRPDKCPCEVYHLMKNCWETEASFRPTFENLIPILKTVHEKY
T5 sequence (P10721 26-976 V559D/T670I): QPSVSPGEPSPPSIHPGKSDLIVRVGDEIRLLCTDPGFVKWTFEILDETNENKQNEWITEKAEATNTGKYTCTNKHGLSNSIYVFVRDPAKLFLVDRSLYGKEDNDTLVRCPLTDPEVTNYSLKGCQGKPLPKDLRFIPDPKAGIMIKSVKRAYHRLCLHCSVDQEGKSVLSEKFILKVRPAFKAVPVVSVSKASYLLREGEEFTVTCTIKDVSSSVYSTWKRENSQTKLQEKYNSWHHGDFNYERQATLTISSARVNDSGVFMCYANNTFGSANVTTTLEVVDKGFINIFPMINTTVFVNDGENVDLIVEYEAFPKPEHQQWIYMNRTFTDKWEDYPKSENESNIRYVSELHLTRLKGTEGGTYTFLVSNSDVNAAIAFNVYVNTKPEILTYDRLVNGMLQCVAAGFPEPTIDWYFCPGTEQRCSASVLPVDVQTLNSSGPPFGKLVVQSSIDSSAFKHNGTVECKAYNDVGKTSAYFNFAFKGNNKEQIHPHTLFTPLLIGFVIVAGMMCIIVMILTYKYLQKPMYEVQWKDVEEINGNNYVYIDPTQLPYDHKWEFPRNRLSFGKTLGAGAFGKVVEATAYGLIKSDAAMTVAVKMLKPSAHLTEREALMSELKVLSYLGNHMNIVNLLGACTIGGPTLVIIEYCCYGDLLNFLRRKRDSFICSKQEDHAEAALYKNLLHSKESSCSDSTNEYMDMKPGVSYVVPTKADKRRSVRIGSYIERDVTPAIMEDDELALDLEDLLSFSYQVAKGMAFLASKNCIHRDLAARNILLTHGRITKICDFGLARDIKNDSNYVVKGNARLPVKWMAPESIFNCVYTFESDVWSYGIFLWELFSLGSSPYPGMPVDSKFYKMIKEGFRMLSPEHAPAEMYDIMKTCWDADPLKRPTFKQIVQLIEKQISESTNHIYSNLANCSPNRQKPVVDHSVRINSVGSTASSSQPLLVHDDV
T9 sequence (Q13177 whole entry): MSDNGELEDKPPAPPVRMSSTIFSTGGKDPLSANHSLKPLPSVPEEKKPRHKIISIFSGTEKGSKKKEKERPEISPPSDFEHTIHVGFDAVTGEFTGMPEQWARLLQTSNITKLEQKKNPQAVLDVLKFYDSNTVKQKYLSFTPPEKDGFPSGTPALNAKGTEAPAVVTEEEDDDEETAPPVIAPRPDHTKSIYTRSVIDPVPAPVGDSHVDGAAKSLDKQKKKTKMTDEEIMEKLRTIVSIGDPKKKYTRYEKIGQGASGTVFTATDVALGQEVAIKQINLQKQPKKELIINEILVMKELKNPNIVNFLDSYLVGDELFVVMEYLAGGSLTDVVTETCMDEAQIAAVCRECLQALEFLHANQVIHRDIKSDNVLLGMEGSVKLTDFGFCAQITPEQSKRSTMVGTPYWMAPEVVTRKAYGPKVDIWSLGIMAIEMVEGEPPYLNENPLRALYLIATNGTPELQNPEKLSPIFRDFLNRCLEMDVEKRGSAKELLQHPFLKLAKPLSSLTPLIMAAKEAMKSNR
PIM2, sequence (Q9P1W9 whole entry): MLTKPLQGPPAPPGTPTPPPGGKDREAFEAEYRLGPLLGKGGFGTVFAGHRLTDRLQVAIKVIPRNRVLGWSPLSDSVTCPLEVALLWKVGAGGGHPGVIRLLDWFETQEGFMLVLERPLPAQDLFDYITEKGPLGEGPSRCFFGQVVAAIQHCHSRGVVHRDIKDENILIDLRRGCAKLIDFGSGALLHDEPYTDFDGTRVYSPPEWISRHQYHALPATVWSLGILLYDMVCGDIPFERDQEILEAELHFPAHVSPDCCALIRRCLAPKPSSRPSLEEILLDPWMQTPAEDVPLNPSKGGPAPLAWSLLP
T2 sequence (Q12852 whole entry): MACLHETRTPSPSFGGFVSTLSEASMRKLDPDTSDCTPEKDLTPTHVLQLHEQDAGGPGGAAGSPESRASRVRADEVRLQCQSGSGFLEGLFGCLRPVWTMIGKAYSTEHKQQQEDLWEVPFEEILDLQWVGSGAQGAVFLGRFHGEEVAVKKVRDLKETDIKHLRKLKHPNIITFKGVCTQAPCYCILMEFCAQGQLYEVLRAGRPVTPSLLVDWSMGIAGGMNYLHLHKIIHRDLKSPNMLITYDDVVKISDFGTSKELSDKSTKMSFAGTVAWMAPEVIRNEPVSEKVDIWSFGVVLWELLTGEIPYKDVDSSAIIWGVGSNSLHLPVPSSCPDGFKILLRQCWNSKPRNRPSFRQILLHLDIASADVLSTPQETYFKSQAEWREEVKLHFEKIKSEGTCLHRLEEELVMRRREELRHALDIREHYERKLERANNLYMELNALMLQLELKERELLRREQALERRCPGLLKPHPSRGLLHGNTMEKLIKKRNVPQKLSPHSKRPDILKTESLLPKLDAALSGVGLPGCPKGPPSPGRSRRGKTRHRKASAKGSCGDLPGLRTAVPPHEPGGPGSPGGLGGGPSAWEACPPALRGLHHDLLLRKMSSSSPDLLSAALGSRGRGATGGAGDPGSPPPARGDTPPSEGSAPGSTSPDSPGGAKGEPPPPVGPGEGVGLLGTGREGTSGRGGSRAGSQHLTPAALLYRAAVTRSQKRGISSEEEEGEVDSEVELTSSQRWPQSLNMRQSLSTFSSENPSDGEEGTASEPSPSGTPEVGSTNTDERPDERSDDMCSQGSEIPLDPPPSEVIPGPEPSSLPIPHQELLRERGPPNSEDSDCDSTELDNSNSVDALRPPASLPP
T4 sequence (P42685 whole entry): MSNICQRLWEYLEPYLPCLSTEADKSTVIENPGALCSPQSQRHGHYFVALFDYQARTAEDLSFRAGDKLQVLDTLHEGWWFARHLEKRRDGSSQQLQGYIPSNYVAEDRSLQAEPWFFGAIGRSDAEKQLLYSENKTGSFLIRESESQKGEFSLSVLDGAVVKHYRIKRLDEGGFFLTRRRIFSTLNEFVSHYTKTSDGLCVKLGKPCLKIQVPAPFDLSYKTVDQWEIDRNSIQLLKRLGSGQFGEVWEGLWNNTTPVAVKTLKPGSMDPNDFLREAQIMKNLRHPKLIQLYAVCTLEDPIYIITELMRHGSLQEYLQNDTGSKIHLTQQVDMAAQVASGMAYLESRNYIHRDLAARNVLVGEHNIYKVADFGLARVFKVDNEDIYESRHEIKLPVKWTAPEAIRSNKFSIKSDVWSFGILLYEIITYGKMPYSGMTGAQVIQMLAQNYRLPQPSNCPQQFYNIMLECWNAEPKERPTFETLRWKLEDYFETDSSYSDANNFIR
GRK1, sequence (Q15835 whole entry): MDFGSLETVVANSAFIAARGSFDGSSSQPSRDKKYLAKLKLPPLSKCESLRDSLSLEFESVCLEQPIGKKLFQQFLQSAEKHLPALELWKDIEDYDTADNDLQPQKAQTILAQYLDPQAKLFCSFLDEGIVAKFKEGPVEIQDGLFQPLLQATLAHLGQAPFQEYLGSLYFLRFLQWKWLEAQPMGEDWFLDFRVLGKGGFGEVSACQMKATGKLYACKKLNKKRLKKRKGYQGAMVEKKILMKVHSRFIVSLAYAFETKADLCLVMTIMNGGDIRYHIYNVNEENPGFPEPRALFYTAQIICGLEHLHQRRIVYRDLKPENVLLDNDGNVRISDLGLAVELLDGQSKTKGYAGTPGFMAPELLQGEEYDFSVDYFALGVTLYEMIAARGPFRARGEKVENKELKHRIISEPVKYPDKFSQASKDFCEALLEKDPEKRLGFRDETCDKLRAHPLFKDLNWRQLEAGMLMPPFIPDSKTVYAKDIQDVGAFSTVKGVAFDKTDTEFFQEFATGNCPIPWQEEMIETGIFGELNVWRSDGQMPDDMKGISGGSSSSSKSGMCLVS

NCCCNc1nc2c(Br)c(Br)c(Br)c(Br)c2[nH]1 [Compound 11, N-(3-aminopropyl)-4,5,6,7-tetrabromo-1H-benzo[d]imidazol-2-amine]
remaining binding at 1 µM (ABL2): 100% | remaining binding at 1 µM (AKT2): 99% | remaining binding at 1 µM (BRSK2): 91% | % binding (DLK): 87% | remaining binding at 1 µM (DMPK): 100% | remaining binding at 1 µM (FRK): 100% | remaining binding at 1 µM (GRK1): 96% | remaining binding at 1 µM (KIT(V559D.T670I)): 100% | remaining binding at 1 µM (LRRK2): 94% | remaining binding at 1 µM (MAP3K3): 100% | remaining binding at 1 µM (MAPKAPK5): 100% | remaining binding at 1 µM (MELK): 82% | remaining binding at 1 µM (MST1R): 100% | remaining binding at 1 µM (PAK2): 64% | remaining binding at 1 µM (PFTAIRE2): 73% | remaining binding at 1 µM (PIK3CA): 100% | remaining binding at 1 µM (PIK3CD): 100% | remaining binding at 1 µM (RET(V804M)): 100% | remaining binding at 1 µM (ROCK1): 28% | % binding [1]: 100% | remaining binding at 1 µM (YANK2): 100% | % binding [2]: 86% | % binding (EGFR(S572-I759del)): 99% | % binding (FLT3(ITD)): 35% | % binding (ISR1): 81% | remaining binding at 1 µM (CLK1): 5.1% | remaining binding at 1 µM (PIM1): 4% | remaining binding at 1 µM (PIM2): 0.85% | remaining binding at 1 µM (PIM3): 5.2%
